In patent US20190231893A1, “METHODS OF TREATING CANCER” (priority 2017, published 2019):
“Also recorded” adds a separate entry of the source. Square brackets hold non-standard residues; d marks the D form. Peptide text beside a SMILES is read from it. * marks the point of attachment. Dolaproine = CO[C@@H]([C@@H]1CCCN1)[C@@H](C)C(=O)O; Dil = CC[C@H](C)[C@H](NC)[C@@H](CC(=O)O)OC; X1 = C[C@@H](N*)[C@@H](O)c1ccccc1; NMeV = CN[C@H](C(=O)O)C(C)C

What was measured:
A431 cells = assay: Drug matrix screen: siRNA knockdown and cell viability; type: cell-based; conditions: for drug sensitivity / cell killing upon EGFR siRNA knockdown: EGFR siRNA control; for shift in drug sensitivity (cell viability) upon siRNA knockdown of γ-tubulin ring complex genes: knockdown of GCNT1, TUBGCP4 and TUBGCP6 relative to CON3 siRNA control, at drug concentrations yielding <60% cell viability
Method: An siRNA library was produced based targeting genes identified from methods listed above. The siRNA panel in 96 well plates (Dharmacon) was diluted to 66 nM/15 μl was combined with equal volume of RNAiMax Lipofectamine (Life Technologies) diluted to 0.15×/15 μl, pipette mixed thoroughly then allowed to incubate for 15 minutes at room temperature before addition of 30 μl/well to A431, U87MG_del, and U87MG_EGFR cell lines seeded in 96 well plates at 4500 cells/70 μl/well. Plates were incubated in 37° C. 5% CO2 incubator for 18-24 hours prior to addition of 10 μl drug (MMAE: 1.5 nM final conc., depatuxizumab mafodotin: 18 nM final conc.) or vehicle (phosphate-buffered saline, PBS). Cell viability was assessed post 48 hour drug treatment via Cell Titer Glo (Promega) for A431 cell line or SRB cell stain assay (Sulforhodamine B assay and Chemosensitivity, Voigt et al.) for U87MG_del2.7 and U87MG_EGFR cell lines following recommended protocols with the following exception: media was aspirated off Cell Titer Glo (CTG) plates and 100 μl 1:5 diluted CTG in PBS added per well, covered with foil, rotated to mix 15 minutes prior to reading on Victor chemilluminescent reader. The assay was performed using triplicate plates per drug/vehicle as well as last row of plate contained control siRNA CON3 incubated with vehicle to control for any plate effect. Each plate also contained a row of positive and negative siRNA controls treated with drug for normalization of effects of siRNA KD within and across plates. Effect of siRNA KD assessed via combination of triplicate reactions per siRNA/drug normalized to CON3 siRNA/PBS control and then normalized to CON3 siRNA/drug to determine shift to drug with siRNA KD.
A protocol similar to high-throughput screen was used, except siRNA was loaded in a 3×6 well matrix in a 96 well plate with the following siRNAs (CON3, GCNT1, TUBGCP4, TUBGCP6) per quarter plate. EGFR siRNA was loaded in exterior rows as a control. Drug was diluted to 5 serial-5 dilutions (MMAE, Vincristine, Paclitaxel) or 5 serial 3-dilutions (depatuxizumab mafodotin) along with no drug control and added to triplicate wells (starting concentrations MMAE: 100 nM; Vincristine: 2000 nM; Paclitaxel: 2000 nM; depatuxizumab mafodotin: 99 nM).

[1] = tested on: glioblastoma with EGFR amplification; assay: Phase 1 study M12-356 (NCT01800695), tumor response; type: in vivo, human; conditions: patients with EGFR-amplified rGBM; FIG. 1
Method: In a Phase 1 study (M12-356, NCT01800695) of depatuxizumab mafodotin in patients with newly diagnosed glioblastoma (nGBM) and recurrent glioblastoma (rGBM) with EGFR amplification, responses in patients with rGBM correlated with EGFR amplification in pre-treatment, archival tumor tissue. Gene amplification was determined by fluorescence in situ hybridization (FISH). Two probes were used: locus-specific EGFR probe and chromosome enumeration probe (CEP) 7. FIG. 1 illustrates change in tumor size in patients with EGFR-amplified rGBM.
Tumor samples for study were from biopsies taken prior to entry onto depatuxizumab mafodotin trial M12-356 (NCT01800695). M12-356 is an open-label, phase 1, 3-arm study: Arm A (depatuxizumab mafodotin+radiation/temozolomide (TMZ) in newly diagnosed GBM; Arm B (depatuxizumab mafodotin+TMZ in newly diagnosed GBM as adjuvant therapy, or in recurrent GBM); and Arm C (depatuxizumab mafodotin monotherapy in recurrent GBM). Arms B and C had and expansion cohort in subjects with centrally confirmed EGFR amplified recurrent GBM.

Row | Molecule | drug sensitivity / cell killing upon EGFR siRNA knockdown (A431 cells; FIG. 3) | drug sensitivity / cell killing upon EGFR siRNA knockdown (A431 cells; FIG. 3, listed as depatux-m) | shift in drug sensitivity (cell viability) upon siRNA knockdown of γ-tubulin ring complex genes (A431 cells; FIG. 3) | shift in drug sensitivity (cell viability) upon siRNA knockdown of γ-tubulin ring complex genes (A431 cells; FIG. 3, listed as depatux-m) | clinical response (change in tumor size) [1] | shift in drug sensitivity (cell viability) upon siRNA knockdown of γ-tubulin ring complex genes (A431 cells; FIG. 3, listed as vincristine)
1 | depatuxizumab mafodotin | loss of drug sensitivity | abrogated drug internalization and cell killing | increased sensitivity | impacted sensitivity; also recorded: more sensitive; also recorded: sensitization | not all patients with EGFR amplification responded | –
2 | CC[C@H](C)[C@@H]([C@@H](CC(=O)N1CCC[C@H]1[C@H](OC)[C@@H](C)C(=O)N[C@H](C)[C@@H](O)c1ccccc1)OC)N(C)C(=O)[C@@H](NC(=O)[C@@H](NC)C(C)C)C(C)C [MMAE, monomethyl auristatin E] (H-[NMeV]V[Dil][Dolaproine]-X1) | – | – | impacted sensitivity; also recorded: more sensitive; also recorded: increased sensitivity | – | – | –
3 | CC(=O)O[C@H]1C(=O)[C@@]2(C)[C@H]([C@H](OC(=O)c3ccccc3)[C@]3(O)C[C@H](OC(=O)[C@H](O)[C@@H](NC(=O)c4ccccc4)c4ccccc4)C(C)=C1C3(C)C)[C@]1(OC(C)=O)CO[C@@H]1C[C@@H]2O [Paclitaxel] | – | – | no additional shift in sensitivity | – | – | –
4 | CC[C@]1(O)C[C@H]2CN(CCc3c([nH]c4ccccc34)[C@@](C(=O)OC)(c3cc4c(cc3OC)N(C=O)[C@H]3[C@@](O)(C(=O)OC)[C@H](OC(C)=O)[C@]5(CC)C=CCN6CC[C@]43[C@@H]65)C2)C1 [Vincristine] | – | – | increased sensitivity | – | – | impacted sensitivity; also recorded: more sensitive
